Data on 11 molecules can be found in US20250145596A1, “HETEROCYCLIC GLP-1 AGONISTS” (Gasherbrum Bio, Inc., priority 2022, published 2025).

The experiment deals with T1, GLP-1 Receptor (Homo sapiens, UniProt P43220).
T1 construct: host or cells: HEK293/CRE-Luc
Kind of experiment: GLP-1R agonist cAMP stimulation assay. The format is cell-based. Particulars: HEK293/CRE-Luc cell line stably expressing the GLP-1 Receptor; 30 min at 37° C.; cAMP dynamic 2 Kit. The procedure: Activation of GLP-1 receptor is known to stimulate cyclic AMP (cAMP) production in cells which indicates primary coupling to the Gas subunit of the G protein heterotrimeric complex.
To optimize functional activity directed toward Gas coupling, a HEK293/CRE-Luc cell line developed by HDB stably expressing the GLP-1 Receptor was used. 200× concentration of compound working solutions were prepared (Agilent Technologies Bravo) with ½ log serial dilution in 384-well Echo LDV plate (Labcyte, Cat #LP-0200). 50 nL/well 200× concentration of compound working solutions were moved to 384-well white low volume plate (Greiner, Cat #784075) using Labcyte ECHO550. 1×10^5 cells/mL HEK293/GLPlR/CRE-LUC (HD Biosciences) cell suspensions prepared with assay buffer [DPBS containing 0.5 mM IBMX (Sigma, Cat #15879) and 0.1% BSA (GENVIEW, Cat #FA016-100g)], 10 μL cell suspensions were added to each well of previous generated assay plate which already contains 50 nL compound at 200× concentration using ThermoFisher Multidrop Combi (1000 cells/well). Seal the plate and incubate at 37° C. with 5% CO2 for 30 min.
After incubation the cAMP assay signal was generated using cAMP dynamic 2 Kit (Cisbio). 5 μL cAMP-d2 working solution was added to each well, followed with 5 μL Anti-cAMP antibody-cryptate working solution added to each well using ThermoFisher Multidrop Combi. Incubate at room temperature for 1 hour protected from light. Read the fluorescence at 665 and 615 nm with Reader PerkinElmer EnVision.
% Activity=100%×(mean RLU of test sample mean RLU of vehicle control)/(mean RLU of MAX control−mean RLU of vehicle control))

Molecules are shown by their SMILES.

T1 sequence (P43220 24-463): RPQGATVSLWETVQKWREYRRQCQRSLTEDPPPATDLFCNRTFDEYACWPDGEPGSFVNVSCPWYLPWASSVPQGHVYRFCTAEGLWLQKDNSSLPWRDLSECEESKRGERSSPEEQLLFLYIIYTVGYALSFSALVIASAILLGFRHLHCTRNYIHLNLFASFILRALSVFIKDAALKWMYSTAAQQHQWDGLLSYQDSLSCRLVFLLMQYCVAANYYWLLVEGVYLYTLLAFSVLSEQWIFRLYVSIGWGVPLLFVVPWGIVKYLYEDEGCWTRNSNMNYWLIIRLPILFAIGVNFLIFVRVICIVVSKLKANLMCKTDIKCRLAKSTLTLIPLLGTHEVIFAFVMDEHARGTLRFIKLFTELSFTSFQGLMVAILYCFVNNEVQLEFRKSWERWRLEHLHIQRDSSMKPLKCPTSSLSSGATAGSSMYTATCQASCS

The molecule `C[C@]1(c2ccc(Cl)cn2)Oc2cccc(C3CCN(Cc4ncc(-c5nnn[nH]5)cc4CC4(C#N)CC4)CC3)c2O1` [Example 75] came in with a half-maximal effective concentration (EC50) of less than 1 nM. On to `Cc1cc(CN2CCC(c3cccc4c3OC(C)(c3ccc(Cl)cc3F)O4)CC2)ncc1-c1nnn[nH]1` (centres unmarked) [Example 96], for which the EC50 was greater than 100 nM. The molecule `CC1(c2ccc(Cl)cc2Cl)Oc2cccc(C3CCN(Cc4ncc(-c5nnc(C(F)(F)F)[nH]5)cc4CC4(C#N)CC4)CC3)c2O1` (single isomer, unassigned) [Example 2, 1-{[2-({4-[2-(2,4-dichlorophenyl)-2-methyl-2H-1,3-benzodioxol-4-yl]piperidin-1-yl}methyl)-5-[5-(trifluoromethyl)-4H-1,2,4-triazol-3-yl]pyridin-3-yl]methyl}cyclopropane-1-carbonitrile] displayed an EC50 of less than 1 nM. The result for `C[C@]1(c2ccc(Cl)cc2F)Oc2cccc(C3CCN(Cc4ncc(C5CC5C(=O)O)cc4CC4(C#N)CC4)CC3)c2O1` (stereo partly drawn) [Example 67, 2-(6-((4-((S)-2-(4-chloro-2-fluorophenyl)-2-methylbenzo[d][1,3]dioxol-4-yl)piperidin-1-yl)methyl)-5-((1-cyanocyclopropyl)methyl)pyridin-3-yl)cyclopropane-1-carboxylic acid] reads 1 to 100 nM.

`C[C@]1(c2ccc(Cl)cc2F)Oc2c(F)ccc(C3CCN(Cc4ncc(-c5nnc(C(F)(F)F)[nH]5)cc4CC4(C#N)CC4)CC3F)c2O1` (single isomer, unassigned) [Example 30] registered an EC50 of less than 1 nM. The result for `N#CC1(Cc2cc(-c3noc(=O)[nH]3)cnc2CN2CCC(c3cccc(OCc4ccc(Cl)cc4F)n3)CC2)CC1` [Example 82] reads 1 to 100 nM. The result for `CC1(c2ccc(Cl)cc2F)Oc2cccc(C3CCN(Cc4ncc(-c5nnc(C(F)(F)F)[nH]5)cc4CC4(C#N)CC4)CC3(F)F)c2O1` (centres unmarked) [Example 22, 1-{[2-({4-[2-(4-chloro-2-fluorophenyl)-2-methyl-2H-1,3-benzodioxol-4-yl]-3,3-difluoropiperidin-1-yl}methyl)-5-[5-(trifluoromethyl)-4H-1,2,4-triazol-3-yl]pyridin-3-yl]methyl}cyclopropane-1-carbonitrile] reads less than 1 nM; that for `C[C@]1(c2ccc(Cl)cn2)Oc2cccc(C3CCN(Cc4ncc(-c5nnc(C(F)(F)F)[nH]5)cc4CC4(C#N)CC4)CC3F)c2O1` (single isomer, unassigned) [Example 26], less than 1 nM. `CC1(c2ccc(Cl)cc2F)Oc2cccc(C3=CCN(Cc4ncc(-c5nnc(C(F)(F)F)[nH]5)cc4CC4(C#N)CC4)CC3)c2O1` (centres unmarked) [Example 66, 1-((2-((4-(2-(4-chloro-2-fluorophenyl)-2-methylbenzo[d][1,3]dioxol-4-yl)-3,6-dihydropyridin-1(2H)-yl)methyl)-5-(5-(trifluoromethyl)-4H-1,2,4-triazol-3-yl)pyridin-3-yl)methyl)cyclopropane-1-carbonitrile]: the EC50 is less than 1 nM.

Regarding `CC1(c2ccc(Cl)c(F)c2)Oc2cccc(C3CCN(Cc4ncc(-c5nnc(C(F)(F)F)[nH]5)cc4CC4(C#N)CC4)CC3)c2O1` (centres unmarked) [Example 10, 1-{[2-({4-[2-(4-Chloro-3-fluorophenyl)-2-methyl-2H-1,3-benzodioxol-4-yl]piperidin-1-yl}methyl)-5-[5-(trifluoromethyl)-4H-1,2,4-triazol-3-yl]pyridin-3-yl]methyl}cyclopropane-1-carbonitrile], the EC50 was less than 1 nM.

For `Cc1ccc(C2(C)Oc3cccc(C4=CCN(Cc5ncc(-c6nnc(C(F)(F)F)[nH]6)cc5CC5(C#N)CC5)CC4)c3O2)c(Cl)c1` (centres unmarked) [Example 65, 1-((2-((4-(2-(2-chloro-4-methylphenyl)-2-methylbenzo[d][1,3]dioxol-4-yl)-3,6-dihydropyridin-1(2H)-yl)methyl)-5-(5-(trifluoromethyl)-4H-1,2,4-triazol-3-yl)pyridin-3-yl)methyl)cyclopropane-1-carbonitrile], the EC50 is less than 1 nM.

For orientation: EC50 means the concentration at which the effect is half-maximal. Low readings indicate a more potent agent, high ones a less potent agent.
